How the values were obtained:
Details in all cases: 72 h
Caco-2 [1] = assay: cell viability relative to DMSO; higher = less toxic
Calu-3 [2] = assay: as above
U2OS [3] = assay: as above
Vero E6 [4] = assay: as above
Caco-2 [5] = assay: relative viability EC50 (midpoint between 100% and the lowest measured viability); higher = less toxic
Calu-3 [6] = assay: as above
U2OS [7] = assay: as above
Vero E6 [8] = assay: as above
Caco-2 [9] = assay: drug sensitivity score (DSS) for viability; higher = more toxic; extreme values may be limits of the assay
Calu-3 [10] = assay: as above
U2OS [11] = assay: as above
Vero E6 [12] = assay: as above
HepG2 [13] = assay: cell viability relative to DMSO; higher = less toxic
HepG2 [14] = assay: drug sensitivity score (DSS) for viability; higher = more toxic; extreme values may be limits of the assay

| Compound | cell viability (Caco-2 [1]; 1 nM) | cell viability (Caco-2 [1]; 10 nM) | cell viability (Caco-2 [1]; 100 nM) | cell viability (Caco-2 [1]; 1000 nM) | cell viability (Caco-2 [1]; 10000 nM) | cell viability (Calu-3 [2]; 1 nM) | cell viability (Calu-3 [2]; 10 nM) | cell viability (Calu-3 [2]; 100 nM) | cell viability (Calu-3 [2]; 1000 nM) | cell viability (Calu-3 [2]; 10000 nM) | cell viability (U2OS [3]; 1 nM) | cell viability (U2OS [3]; 10 nM) | cell viability (U2OS [3]; 100 nM) | cell viability (U2OS [3]; 1000 nM) | cell viability (U2OS [3]; 10000 nM) | cell viability (Vero E6 [4]; 1 nM) | cell viability (Vero E6 [4]; 10 nM) | cell viability (Vero E6 [4]; 100 nM) | cell viability (Vero E6 [4]; 1000 nM) | cell viability (Vero E6 [4]; 10000 nM) | relative viability EC50 (Caco-2 [5]) | relative viability EC50 (Calu-3 [6]) | relative viability EC50 (U2OS [7]) | relative viability EC50 (Vero E6 [8]) | drug sensitivity score (Caco-2 [9]) | drug sensitivity score (Calu-3 [10]) | drug sensitivity score (U2OS [11]) | drug sensitivity score (Vero E6 [12]) | cell viability (HepG2 [13]; 1 nM) | cell viability (HepG2 [13]; 10 nM) | cell viability (HepG2 [13]; 100 nM) | cell viability (HepG2 [13]; 1000 nM) | cell viability (HepG2 [13]; 10000 nM) | drug sensitivity score (HepG2 [14]) |
| --- | --- | --- | --- | --- | --- | --- | --- | --- | --- | --- | --- | --- | --- | --- | --- | --- | --- | --- | --- | --- | --- | --- | --- | --- | --- | --- | --- | --- | --- | --- | --- | --- | --- | --- |
| CN(C(=O)c1c(O)c2ccccc2n(C)c1=O)c1ccccc1 [roquinimex] | 88.7% | 95.5% | 82.2% | 92.5% | 99.5% | 85.8% | 96.1% | 96% | 95.4% | 108% | 96.5% | 101% | 94.1% | 93.8% | 101% | 103% | 93.6% | 98.2% | 97.1% | 105% | > 10 µM | > 10 µM | > 10 µM | > 10 µM | 0 | 0 | 0 | 0 | – | – | – | – | – | – |
| O=c1[nH]cc(F)c(=O)[nH]1 [5-fluorouracil] | 80% | 103% | 85.7% | 93.4% | 79.6% | 93.5% | 99.2% | 98.1% | 101% | 90.5% | 100% | 97.4% | 97.6% | 95.6% | 64% | 102% | 95.7% | 106% | 95.8% | 62.9% | > 10 µM | > 10 µM | – | – | 1.4 | 0 | 2.4 | 2.5 | 103% | 93% | 103% | 83.7% | 54.4% | 4.7 |
| CCCCNNC(=O)c1ccc(Br)cc1 [UF-010] | 99.5% | 91.9% | 92.8% | 101% | 84.3% | 101% | 98.2% | 96.8% | 95.6% | 64.2% | 100% | 104% | 100% | 99.8% | 70.2% | 104% | 98.9% | 101% | 102% | 69.6% | > 10 µM | – | – | – | 0.3 | 2.4 | 1.3 | 1.2 | 106% | 94% | 105% | 88% | 61.5% | 3.6 |
| O=C(Nc1cccc(Nc2ncc(Br)c(NCCc3cnc[nH]3)n2)c1)N1CCCC1 [BX-912] | 103% | 93.4% | 102% | 94.6% | 101% | 108% | 95.4% | 104% | 102% | 91.2% | 102% | 93.2% | 97.5% | 98.3% | 55.9% | 97.7% | 93.5% | 94.4% | 95.8% | 91.5% | > 10 µM | > 10 µM | – | > 10 µM | 0 | 0 | 2.5 | 0 | 103% | 91.8% | 103% | 82.3% | 55.8% | 4.7 |
| O=C(c1ccccc1)C(O)c1ccccc1 (centres undefined) [benzoin] | – | – | – | – | – | – | – | – | – | – | – | – | – | – | – | – | – | – | – | – | – | – | – | – | – | 0 | 0 | 0 | – | – | – | – | – | 0.3 |
| C#C[C@]1(O)CC[C@H]2[C@@H]3CCC4=CC(=O)CC[C@@H]4[C@H]3CC[C@@]21CC [norgestrel] | – | – | – | – | – | – | – | – | – | – | – | – | – | – | – | – | – | – | – | – | – | – | – | – | – | 0 | 0 | 0 | – | – | – | – | – | 0 |
| O=C(Nc1cccc2cccnc12)c1ccc(N2C(=O)[C@@H]3[C@H](C2=O)[C@H]2C=C[C@@H]3C2)cc1 [exo-IWR-1] | 92.2% | 100% | 103% | 102% | 106% | 87.4% | 103% | 107% | 103% | 102% | 99.1% | 104% | 99.6% | 108% | 104% | 94.2% | 93.1% | 92.2% | 97.1% | 106% | – | – | – | – | 0 | 0 | 0 | 0 | 105% | 99.3% | 103% | 87.9% | 92% | 0.5 |
| NS(=O)(=O)c1cc2c(cc1Cl)NC(C(Cl)Cl)NS2(=O)=O (centres undefined) [trichlormethiazide] | – | – | – | – | – | – | – | – | – | – | – | – | – | – | – | – | – | – | – | – | – | – | – | – | – | 0 | 0 | 0 | – | – | – | – | – | 1.4 |
| CC(=O)CC(=O)O [lithium-acetoacetate] | 94% | 104% | 101% | 109% | 99.3% | 98.2% | 101% | 98.9% | 99% | 100% | 98.6% | 101% | 98.1% | 102% | 96.8% | 103% | 104% | 103% | 97.7% | 105% | > 10 µM | > 10 µM | > 10 µM | > 10 µM | 0 | 0 | 0 | 0 | – | – | – | – | – | – |
| CC(OC(=O)OC1CCCCC1)OC(=O)C1=C(CSc2nnnn2CCN(C)C)CS[C@@H]2[C@H](NC(=O)Cc3csc(N)n3)C(=O)N12 (some centres undefined) [cefotiam-cilexetil] | 82.3% | 93.3% | 96.8% | 113% | 117% | 96.4% | 90% | 99.1% | 96.9% | 109% | 96.5% | 102% | 98.4% | 99.5% | 94.8% | – | – | – | – | – | > 10 µM | > 10 µM | > 10 µM | – | 0 | 0 | 0 | – | – | – | – | – | – | – |
| Nc1nnc(-c2cccc(Cl)c2Cl)c(N)n1 [lamotrigine] | – | – | – | – | – | – | – | – | – | – | – | – | – | – | – | – | – | – | – | – | – | – | – | – | – | 0 | 0 | – | – | – | – | – | – | – |
| O=C1NC(=O)/C(=C/c2ccc3nccc(-c4ccncc4)c3c2)S1 | 92.9% | 96.2% | 89.3% | 95.5% | 36% | 103% | 101% | 97.8% | 89.1% | 31.4% | 96.1% | 95.5% | 100% | 91.7% | 37.9% | 93.6% | 99.1% | 89.9% | 90.5% | 53.5% | 2.6 µM | 1.94 µM | 2.09 µM | – | 4.2 | 5.6 | 4.8 | 3.9 | 95.1% | 105% | 94.9% | 93% | 53.8% | 3.6 |
| CC(C)(C)NCC(O)c1cc(Cl)c(N)c(C(F)(F)F)c1 (centres undefined) [mabuterol] | 87.6% | 110% | 99.1% | 112% | 85.7% | 102% | 97% | 99.6% | 92.8% | 98.2% | 97.2% | 93.6% | 98.8% | 97.7% | 93.3% | 89.1% | 92% | 92.4% | 91.6% | 104% | > 10 µM | > 10 µM | > 10 µM | > 10 µM | 0.1 | 0 | 0 | 0 | – | – | – | – | – | – |
| CCCCC1CCC(c2nc(-c3ccncc3)no2)CC1 (centres undefined) | 106% | 98.8% | 104% | 98.7% | 103% | – | – | – | – | – | – | – | – | – | – | – | – | – | – | – | > 10 µM | – | – | – | 0 | – | – | – | – | – | – | – | – | – |
| Cc1ccc(NC(=O)CCCCCC(=O)Nc2ccccc2N)cc1 [TC-H-106] | 103% | 97% | 97.6% | 96.2% | 81.9% | 98.5% | 99.7% | 92.9% | 87.4% | 59.4% | 101% | 96.4% | 98.4% | 95.7% | 80.3% | 105% | 102% | 98.2% | 102% | 77.6% | > 10 µM | – | > 10 µM | > 10 µM | 0.9 | 3.4 | 1.1 | 0.6 | 99.7% | 109% | 98.9% | 93.4% | 57.3% | 3.3 |
| CCNCCCNCCCCNCCCNCC [1,12-Besm] | 103% | 86.3% | 96.5% | 91.7% | 61.8% | 95.6% | 110% | 110% | 102% | 86.7% | 102% | 96.1% | 96.6% | 89.5% | 79.1% | 101% | 104% | 99.4% | 97.5% | 70.5% | – | > 10 µM | > 10 µM | – | 3.2 | 0.1 | 1.3 | 1.7 | 104% | 104% | 106% | 86.7% | 50.5% | 4.7 |
| CN1CCN(c2c(F)cc3c(=O)c(C(=O)O)cn(CCF)c3c2F)CC1 [fleroxacin] | 102% | 97.2% | 100% | 96.8% | 107% | 88% | 106% | 102% | 108% | 107% | 96.5% | 93.6% | 104% | 97.1% | 102% | 102% | 105% | 97.6% | 101% | 98.1% | > 10 µM | > 10 µM | > 10 µM | > 10 µM | 0 | 0 | 0 | 0 | – | – | – | – | – | – |
| COC(=O)C1=C(C)NC(C)=C(C(=O)O[C@H]2CCN(Cc3ccccc3)C2)[C@H]1c1cccc([N+](=O)[O-])c1 [barnidipine] | 108% | 92.8% | 102% | 105% | 73.1% | 100% | 99.4% | 99.8% | 95.9% | 82.4% | 98.6% | 103% | 97.5% | 98.2% | 88.8% | 87.7% | 88.6% | 105% | 106% | 87.7% | – | > 10 µM | > 10 µM | > 10 µM | 0.8 | 0.9 | 0.1 | 0 | 105% | 105% | 85.1% | 95.6% | 73.8% | 1.4 |
| CCCCCCC[N+](CC)(CC)CCCCc1ccc(Cl)cc1 [clofilium] | 114% | 106% | 101% | 108% | 54.4% | 83.9% | 106% | 91.8% | 93.6% | 87.7% | 95.7% | 95.6% | 97.7% | 93% | 92.2% | 89% | 102% | 95.2% | 104% | 116% | – | > 10 µM | > 10 µM | > 10 µM | 1.9 | 0 | 0 | 0 | 94.1% | 124% | 135% | 122% | 72.5% | 0.6 |

Reference: the supplement of paper PMC13380429
